The values below come from patent US20210188817A1, “OPHTHALMIC COMPOSITIONS AND METHODS FOR THE TREATMENT OF EYE DISORDERS AND SKIN DISEASES” (Cellix Bio Private Limited, priority 2018, published 2021).

How the values of data set [1] were obtained: SINGLE DOSE OCULAR PHARMACOKINETIC STUDY OF CLX-162 FORMULATION IN MALE NEW ZEALAND WHITE RABBITS: The purpose of this study was to determine the ocular pharmacokinetics of CLX-162, Brimonidine R-(+)-lipoate when administered to male New Zealand white rabbits by topical ocular route.
Aqueous humor samples were collected at pre-determined time points (0.25, 0.5, 1, 2, 4, 8 and 12 h from both eyes) and stored at −70° C. until analysis. Brimonidine was quantified in aqueous humor samples of New Zealand White rabbits, using a specific sensitive LC-MS/MS fit for purpose analytical method.
Brimonidine Pharmacokinetic parameters in aqueous humor of New Zealand white rabbits: […]

The next data set has as its system P. acnes. Particulars: 72 hours co-culture; compared with S. aureus and S. epidermidis. The source says: (§1) ANTI-MICROBIAL PROPERTIES OF CLX-SYN-G162B-C02 AND BRIMONIDINE MALEATE: To compare dose-response effects of CLX-SYN-G162B-C02 [brimonidine eicosapentaenoate salt], compound of present invention and brimonidine maleate [referred as brimonidine], comparative example on the growth of bacteria that are present in the skin flora, P. acnes, Staphylococcus aureus (S. aureus), and Staphylococcus epidermidis (S. epidermidis) were co-cultured with either agent at various concentrations for 72, 24, and 48 hours, respectively.
(§2) Bacterial growth was evaluated by measuring absorbance at 600 nm. The length of cultivation period was determined based on the growth speed of the bacteria. Both, CLX-SYN-G162B-C02 and brimonidine were tested at concentrations of twofold serial dilutions from 0.24 to 500 μg ml-1.

Data set [2] concerns P. acnes, Staphylococcus aureus (S. aureus), and Staphylococcus epidermidis (S. epidermidis). Particulars: twofold serial dilutions 0.24 to 500 μg ml-1, 72, 24, 48 hours for P. acnes, OD600.
Source text: as §1, §2

Setting [3] is: brimonidine in aqueous humor, 50 μL topical ocular, each eye, New Zealand white rabbits.

For the compound `Brc1c(NC2=NCCN2)ccc2nccnc12.O=C(O)CCCC[C@@H]1CCSS1` [CLX-162, Brimonidine R-(+)-lipoate], the AUC profile result in data set [1] (aqueous humor, ocular administration, comparator not stated) is on record as “better AUC profile”. Further, in data set [1] (setting [3]), the AUCinf came out at 1953 ng·h/mL, the AUClast is 1875 ng·h/mL, the Cmax is on record as 1073 ng/mL and the MRTlast stood at 75.6 min. Further, in data set [1] (setting [3]), the T1/2 came out at 49.2 min and the Tmax was found to be 30 min. The “Time to maximal aqueous humor concentration” value in data set [1] (topical ocular) was ≤ 0.5 h. Besides, the “Brimonidine levels detectable in the aqueous humor, time post dose” value in data set [1] (topical ocular, sampling 0.25-12 h) was “up to 4 h”.

On to “Brimonidine Eicosapentaenoate [CLX-SYN-G162B-C02]”, for which, in the data set with P. acnes, the “half maximal effective concentration on P. acnes growth” value is reported as “lowest among the bacteria tested”. Moreover, the “minimal inhibitory concentration (MIC)” value in data set [2] was “had shown to prevent bacterial growth”.

As to “brimonidine maleate [reference compound]”, the “minimal inhibitory concentration (MIC)” value in data set [2] is reported as “no MIC”.
